Drawing on PubChem BioAssay (NCI), this text covers GI50 and TGI for 11 molecules.

Values joined by “and” are separate entries in the source; they are usually repeats but may differ in a detail not shown here. Equal entries are not always repeated.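 Five compound concentrations were applied to cells in 96-well plates for 48 hours; endpoints were derived by simple linear interpolation of the resulting dose-response curve. The concentration for 50% growth inhibition is given as GI50. TGI denotes the concentration required for complete inhibition of growth.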

Some test systems named below: ACHN renal; COLO 205 colon; HCT-15 colon; MALME-3M melanoma; MOLT-4 leukemia; RPMI-8226 leukemia; SW-620 colon; T-47D breast; U251 CNS; M14 melanoma.
What all share (test): NCI anticancer screen, dose series, 48 h

Consider `NC(=S)N=Nc1c(O)[nH]c2ccccc12`, for which the GI50 was 141 µM with ACHN renal; 139 µM in the assay on HCT-15 colon; 310 µM with MALME-3M melanoma; 243 µM with MOLT-4 leukemia; 194 µM in the assay with RPMI-8226 leukemia; 474 µM in the assay with SW-620 colon. Besides, the GI50 in the assay with T-47D breast is 184 µM; in the assay on U251 CNS, 188 µM. For the same molecule, the TGI in the assay with ACHN renal was 394 µM; with COLO 205 colon it was greater than 1000 µM; in the assay with HCT-15 colon, 470 µM; in the assay on MALME-3M melanoma, 753 µM; in the assay on MOLT-4 leukemia it was greater than 1000 µM; in the assay with RPMI-8226 leukemia it was 708 µM. The TGI with SW-620 colon is greater than 1000 µM; in the assay on T-47D breast it was 617 µM; in the assay on U251 CNS it was 404 µM.
Consider `CC(C)CC1NC(=O)C(C(C)C)NC(=O)CC(C)COC(=O)C(CC(C)C)N(C)C(=O)C(C(C)C)NC(=O)C(C(C)C)OC1=O` (configuration not stated), for which the TGI in the assay with ACHN renal, in the assay on COLO 205 colon, with HCT-15 colon, with M14 melanoma, in the assay with MALME-3M melanoma and in the assay on MOLT-4 leukemia was greater than 50 µM in each case. The TGI in the assay with SW-620 colon, in the assay on T-47D breast and in the assay with U251 CNS was greater than 50 µM each time.
For `NC(C(=O)O)c1ccc(C(=O)O)cc1` (configuration not stated), the TGI in the assay with ACHN renal, in the assay on COLO 205 colon, with HCT-15 colon, with M14 melanoma, with MALME-3M melanoma and with MOLT-4 leukemia was greater than 100 µM each time. Also, the TGI in the assay with RPMI-8226 leukemia, in the assay on SW-620 colon and in the assay on U251 CNS was greater than 100 µM in each case.
In the case of `CC1CC2(C)CC(=O)C1C1C(=O)N(CCN3CCOCC3)C(=O)C12` (configuration not stated), the GI50 in the assay on ACHN renal, in the assay with COLO 205 colon, in the assay on HCT-15 colon, in the assay with M14 melanoma, in the assay with MALME-3M melanoma and in the assay on MOLT-4 leukemia was greater than 100 µM each time. Further, the GI50 in the assay with SW-620 colon, in the assay with T-47D breast and with U251 CNS was greater than 100 µM each time. The TGI with ACHN renal, in the assay with COLO 205 colon, in the assay on HCT-15 colon, in the assay on M14 melanoma, in the assay on MALME-3M melanoma and in the assay on MOLT-4 leukemia was greater than 100 µM each time. Also, the TGI in the assay on SW-620 colon, in the assay with T-47D breast and in the assay with U251 CNS was greater than 100 µM each time.
`O=C(Nc1ccc(N2CCNCC2)cn1)c1[nH]ncc1Nc1ncnc2sc3c(c12)CCC3`: the GI50 was 2.11 µM with COLO 205 colon; 1.49 µM in the assay with M14 melanoma; 2.54 µM in the assay on MOLT-4 leukemia; 1.94 µM in the assay with RPMI-8226 leukemia; 0.476 µM in the assay on SW-620 colon; 1.65 µM in the assay on T-47D breast. Further, the TGI amounted to 6.97 µM in the assay on COLO 205 colon; 3.22 µM in the assay with M14 melanoma; 19.8 µM in the assay on MOLT-4 leukemia; 5.82 µM with RPMI-8226 leukemia; 2.05 µM with SW-620 colon; 4.27 µM in the assay on T-47D breast.
`N#CCCn1c(CCC(=O)Nc2ccc(Cl)cc2Cl)n[nH]c1=S`: the TGI in the assay on ACHN renal, in the assay on COLO 205 colon, with HCT-15 colon, in the assay with M14 melanoma, with MALME-3M melanoma and with MOLT-4 leukemia was greater than 100 µM throughout. The TGI with RPMI-8226 leukemia, in the assay on SW-620 colon and in the assay with U251 CNS was greater than 100 µM in each case.
With `COc1ccc(OC)c(/C=C/C(=O)c2ccc3cc(OC)ccc3c2)c1`, the TGI with ACHN renal was greater than 32.9 µM; in the assay on COLO 205 colon, greater than 14.8 µM; in the assay on HCT-15 colon, greater than 50 µM; in the assay on M14 melanoma it was greater than 50 µM; with MOLT-4 leukemia, 26.1 µM; in the assay with RPMI-8226 leukemia, greater than 37.8 µM. The TGI with SW-620 colon was greater than 50 µM; in the assay on T-47D breast, 3.33 µM; with U251 CNS it was greater than 50 µM. Besides, the GI50 in the assay with COLO 205 colon was 6.81 µM; in the assay on M14 melanoma it was greater than 23.4 µM; with MOLT-4 leukemia, 7.74 µM; with RPMI-8226 leukemia, 4.53 µM; in the assay on T-47D breast, 0.811 µM; in the assay on U251 CNS, 7.19 µM.
For the molecule `COc1ccc([Se]c2ccc(OC)cc2)cc1`, the TGI in the assay with ACHN renal, with COLO 205 colon, in the assay on HCT-15 colon, in the assay on M14 melanoma, with MALME-3M melanoma and with MOLT-4 leukemia was greater than 100 µM each time. Moreover, the TGI in the assay with RPMI-8226 leukemia, in the assay with SW-620 colon and in the assay with U251 CNS was greater than 100 µM in each case.
Regarding `CC(=O)c1cccc(NC(=O)/C(=N\NC(=S)NN)C2C(=O)Nc3ccccc3S2=O)c1` (configuration not stated), the TGI with ACHN renal, with M14 melanoma, in the assay on MALME-3M melanoma, in the assay on MOLT-4 leukemia, in the assay on RPMI-8226 leukemia and in the assay on SW-620 colon was greater than 100 µM each time. Besides, the TGI in the assay on T-47D breast and in the assay on U251 CNS was greater than 100 µM each time.
Regarding `O=S1Cc2ccccc2CSS1` (configuration not stated), the TGI in the assay with ACHN renal turned out to be 30.9 µM; in the assay on COLO 205 colon it was 27.3 µM; in the assay on HCT-15 colon, 28.1 µM; with M14 melanoma, 27 µM; in the assay with MALME-3M melanoma it was 26.2 µM; in the assay with MOLT-4 leukemia it was 52.1 µM. Further, the TGI in the assay with RPMI-8226 leukemia came to 39.8 µM; in the assay with SW-620 colon, 27.2 µM; in the assay on U251 CNS, 31.9 µM.
Turning to `CN(C)c1ccc(/C=c2\sc3nnc(Cc4ccccc4)n3c2=O)cc1`, the GI50 in the assay with ACHN renal was greater than 10 µM; with HCT-15 colon it was greater than 10 µM; in the assay on M14 melanoma, greater than 100 µM; in the assay on MALME-3M melanoma, greater than 100 µM; in the assay with MOLT-4 leukemia, greater than 100 µM; in the assay with RPMI-8226 leukemia, greater than 100 µM. Besides, the GI50 is greater than 10 µM with SW-620 colon and greater than 100 µM in the assay on U251 CNS. Further, the TGI with ACHN renal is greater than 100 µM; in the assay on COLO 205 colon it was greater than 10 µM; with HCT-15 colon, > 10 µM and 37.8 µM; in the assay with M14 melanoma, greater than 100 µM; in the assay with MALME-3M melanoma, greater than 100 µM; in the assay with MOLT-4 leukemia, greater than 100 µM. Moreover, the TGI is greater than 100 µM with RPMI-8226 leukemia; > 10 µM and 29.2 µM with SW-620 colon; greater than 100 µM in the assay with U251 CNS.
